According to US8791163B2 (McGill University, priority 2006, dated 2014):

How the values were obtained:
[1] = target: T1, cloned human MT1 receptors (Homo sapiens, UniProt P48039); assay: 2-[125I]iodomelatonin competition binding, human MT1 in NIH3T3 cells; conditions: calculated from IC50 by Cheng-Prusoff, mean of at least three determinations
T1 construct: expressed in transfected cells
Procedure: (§1) Membranes were incubated for 90 min at 37° C. in binding buffer (Tris/HCl 50 mM, pH 7.4). The final membrane concentration was 5-10 μg of protein per tube. […] The pKi values are the mean of at least three independent determinations performed in duplicate. To define the functional activity of the compounds of Formula (I) at the MT1 and MT2 receptor subtypes, [^35S]GTPγS binding assays in NIH3T3 cells expressing human-cloned MT1 or MT2 receptors were performed. The amount of bound [^35S]GTPγS is proportional to the level of analogue-induced G-protein activation and is related to the intrinsic activity of the compound (i.e. a compound of Formula (I)) under study. […] Nonspecific binding was assessed using non-radiolabeled GTPγS (10 μM). […] Basal stimulation is the amount of [^35S]GTPγS specifically bound in the absence of the compounds of Formula (I) and was taken as 100%. […] All of the measurements were performed in triplicate.

[2] = target: T2, cloned human MT2 receptors (Homo sapiens, UniProt P49286); assay: 2-[125I]iodomelatonin competition binding, human MT2 in NIH3T3 cells; conditions: human MT2 in NIH3T3 cells, calculated from IC50 by Cheng-Prusoff, mean of at least three determinations
T2 construct: expressed in transfected cells
T2 sequence (P49286 1-362): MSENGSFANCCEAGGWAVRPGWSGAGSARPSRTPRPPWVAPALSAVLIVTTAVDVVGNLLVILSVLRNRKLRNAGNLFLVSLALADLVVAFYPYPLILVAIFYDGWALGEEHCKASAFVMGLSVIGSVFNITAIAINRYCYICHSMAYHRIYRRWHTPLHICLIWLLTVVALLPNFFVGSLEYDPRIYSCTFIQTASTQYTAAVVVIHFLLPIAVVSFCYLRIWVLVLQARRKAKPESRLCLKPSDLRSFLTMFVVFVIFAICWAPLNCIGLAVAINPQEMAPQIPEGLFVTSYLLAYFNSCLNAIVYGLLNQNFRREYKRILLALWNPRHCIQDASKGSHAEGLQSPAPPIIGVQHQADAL
Procedure: as §1

[3] = target: T1, cloned human MT1 receptors; assay: [35S]GTPγS binding assay, NIH3T3 cells expressing human MT1; format: biochemical; conditions: for MT1 IAr ± SEM (relative intrinsic activity): maximal net effect relative to MLT; on MT1 Activity: key: A = agonist; PA = partial agonist; ANT = antagonist; IA = Inverse agonist
Procedure: as §1

[4] = target: T2, cloned human MT2 receptors; assay: [35S]GTPγS binding assay, NIH3T3 cells expressing human MT2; format: biochemical; conditions: for MT2 IAr ± SEM (relative intrinsic activity): maximal net effect relative to MLT; on MT2 Activity: key: A = agonist; PA = partial agonist; ANT = antagonist; IA = Inverse agonist
Procedure: as §1

T1 sequence (P48039 whole entry): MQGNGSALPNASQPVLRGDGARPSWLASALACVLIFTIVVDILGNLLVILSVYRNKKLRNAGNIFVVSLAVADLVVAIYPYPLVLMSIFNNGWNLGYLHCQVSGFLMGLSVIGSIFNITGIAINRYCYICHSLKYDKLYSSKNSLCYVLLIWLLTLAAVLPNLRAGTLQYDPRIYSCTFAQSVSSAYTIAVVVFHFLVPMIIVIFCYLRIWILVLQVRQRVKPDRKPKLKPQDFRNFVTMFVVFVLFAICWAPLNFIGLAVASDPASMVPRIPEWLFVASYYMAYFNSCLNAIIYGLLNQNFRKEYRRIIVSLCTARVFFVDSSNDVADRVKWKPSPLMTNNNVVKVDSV

Compound	MT1 pKi [1]	MT2 pKi [2]	MT1 Activity [3]	MT1 IAr ± SEM (relative intrinsic activity) [3]	MT2 Activity [4]	MT2 IAr ± SEM (relative intrinsic activity) [4]	Ki ([2]; read-out: MT2 pKi (converted))	Ki ([1]; read-out: MT1 pKi (converted))
COc1cccc(N(CCN(C)C(C)=O)c2ccccc2)c1 [compound 6]	5.89 ± 0.07	7.28 ± 0.06	ANT	−0.01 ± 0.03	ANT	−0.01 ± 0.03		
COc1cccc(NCCNC(C)=O)c1 [5l, N-[2{(3-Methoxyphenyl)-amino]ethyl}acetamide]	8.28 ± 0.01			0.84 ± 0.01		0.94 ± 0.03	7.59 nM	
COc1cccc(N(CCNC(C)=O)c2cccc(OC)c2)c1 [5c, N-[2-(bis-3-methoxyphenylamino)ethyl]acetamide]	7.72 ± 0.13	10.56 ± 0.10		0.59 ± 0.05	ANT	0.15 ± 0.01		
COc1cccc(N(C)CCCNC(C)=O)c1 [5m, N-{3-[(3-Methoxyphenyl)-methylamino]propyl}acetamide]	9.08 ± 0.04	8.70 ± 0.26		0.87 ± 0.05		1.07 ± 0.06		
COc1cccc(N(CCNC(C)=O)Cc2ccccc2)c1 [5k, N-{2-[(3-Methoxyphenyl)-benzylamino]ethyl}acetamide]	7.30 ± 0.10	9.12 ± 0.05		0.92 ± 0.06		0.31 ± 0.02		
COc1ccc(N(CCNC(C)=O)c2cccc(OC)c2)cc1 [5d, N-{2-[(4-Methoxyphenyl)-3-methoxyphenylamino]ethyl}acetamide]	7.00 ± 0.01	9.06 ± 0.10	ANT	0.06 ± 0.03	ANT	0.03 ± 0.01		
COc1cccc(N(CCNC(=O)C2CCC2)c2ccccc2)c1 [5o, N-{2-[(3-Methoxyphenyl)-phenylamino]ethyl}cyclobutancarboxamide]		8.43 ± 0.40		0.22 ± 0.01		0.29 ± 0.01		331 nM
CC(=O)NCCN(c1ccccc1)c1cccc(Br)c1 [5f, N-{2-[(3-bromophenyl)-phenylamino]ethyl}acetamide]	7.77 ± 0.19	9.70 ± 0.43		0.43 ± 0.04		0.36 ± 0.01		
COc1cccc(N(CCNC(C)=O)c2ccc3ccccc3c2)c1 [5g, N-{2-[(3-Methoxyphenyl)-β-naphthylamino]ethyl}acetamide]	6.88 ± 0.07	9.95 ± 0.64	ANT	0.17 ± 0.03		−0.20 ± 0.03		
CC(=O)NCCN(c1ccccc1)c1cccc(OCCCCc2ccccc2)c1 [5i]	7.45 ± 0.01	6.48 ± 0.29	ANT	0.12 ± 0.02	ANT	0.01 ± 0.01		
